# Laboratory results as given in patent publication US20230365561A1, “BETA-LACTAMASE INHIBITORS AND THEIR PREPARATION” (NINGXIA ACADEMY OF AGRICUL TURE AND FORESTRY SCIENCES, priority 2020, published 2023).
# Where a name gives a salt, the structure may show the parent alone. Read-outs that look alike come from different tables or passages of the source.
# How the values were obtained:
# Type in all cases: cell-based
# [1] = test system: E. coli clinical isolate (strain 1); test: MIC by broth microdilution (alone and in combination with meropenam), strain 1; conditions: for MIC: Escherichia coli, compound alone
# Method: (§1) Compounds of the present invention alone, meropenam (MER) alone, and as a combination with test antibiotic (meropenam) were tested for antimicrobial activity by determing minimum inhibitory concentration (MIC, mg/L) using the broth microdilution method according to the guidelines of the Clinical Laboratories and Stansards Insitute (“Methods for Dilution Antimicrobial Suscetibility Tests for Bacterial that Grow Aerobiclly”, Approved standard, […]., Clinical and Laboratories Stanards Institute (CLSI) Document M7-A8, Wayne, Pa., USA, 2009). Meropenam as a test antibiotic compound was dissolved in DMSO. Meropenam was then diluted in microbial growth medium (Mueller-Hinton Broth II, cation adjusted) resulting in a final concention range of 0.125-64 mg/L in serial two-fold dilution. In all cases the filnal DMSO concentraion was less than 0.5%. Bacteria were added to 96-well microtitre plates containing the serial two-fold dilutions of the compoumds; the final cell density was appoximately 5x10^5 colony forming units/mL (CFU/mL). Plates were incubated at 37° C. for 18-24 hours and read visually. The MIC, i.e. the lowest concentration of the test compound that inhibited visible growth of the bacteria, was recorded. The same assay conditions were used when the compounds of present invention alone, and as a combination with test meropenam antibiotic compound was tested for minmum inhibitory concentration (MIC, mg/L). Whileest meropenam was serially diluted as descrribed above, a constant concentration of the present invention of 4 µg/mL was used.
# (§2) Bacterial strains that were used to evaluate the antimicrobial activity using the MIC determination included but were not limited to E. coli clinical isolate (strain 1), E. coli 8739 (strain 2), K. pneumoniae clinical isolate (strain 3), K. pneumoniae 700603 (strain 4), E. cloacae clinical isolate (strain 5), E. cloacae 700323 (strain 6), A. baumannii clinical isolate (strain 7), A. baumannii 19606 (strain 8), P. aeruginosa clinical isolate (strain 9), P. aeruginosa 9027 (strain 10).
# [2] = test system: E. coli 8739 (strain 2); test: MIC by broth microdilution (alone and in combination with meropenam), strain 2; conditions: for MIC: Escherichia coli, compound alone
# Method: as §1, §2
# [3] = test system: K. pneumoniae clinical isolate (strain 3); test: MIC by broth microdilution (alone and in combination with meropenam), strain 3; conditions: for MIC: Klebsiella pneumoniae, compound alone
# Method: as §1, §2
# [4] = test system: K. pneumoniae 700603 (strain 4); test: MIC by broth microdilution (alone and in combination with meropenam), strain 4; conditions: for MIC: Klebsiella pneumoniae, compound alone
# Method: as §1, §2
# [5] = test system: E. cloacae clinical isolate (strain 5); test: MIC by broth microdilution (alone and in combination with meropenam), strain 5; conditions: for MIC: Enterobacter cloacae, compound alone
# Method: as §1, §2
# [6] = test system: E. cloacae 700323 (strain 6); test: MIC by broth microdilution (alone and in combination with meropenam), strain 6; conditions: for MIC: Enterobacter cloacae, compound alone
# Method: as §1, §2
# [7] = test system: A. baumannii clinical isolate (strain 7); test: MIC by broth microdilution (alone and in combination with meropenam), strain 7; conditions: for MIC: Acinetobacter baumannii, compound alone
# Method: as §1, §2
# [8] = test system: A. baumannii 19606 (strain 8); test: MIC by broth microdilution (alone and in combination with meropenam), strain 8; conditions: for MIC: Acinetobacter baumannii, compound alone
# Method: as §1, §2
# [9] = test system: P. aeruginosa clinical isolate (strain 9); test: MIC by broth microdilution (alone and in combination with meropenam), strain 9; conditions: for MIC: Pseudomonas aeruginosa, compound alone
# Method: as §1, §2
# [10] = test system: P. aeruginosa 9027 (strain 10); test: MIC by broth microdilution (alone and in combination with meropenam), strain 10; conditions: for MIC: Pseudomonas aeruginosa, compound alone
# Method: as §1, §2
# [11] = read-out: MIC, antibacterial activity of example alone
SMILES,"MIC [1, 11] [µg/mL]","MIC [2, 11] [µg/mL]","MIC [3, 11] [µg/mL]","MIC [4, 11] [µg/mL]","MIC [5, 11] [µg/mL]","MIC [6, 11] [µg/mL]","MIC [7, 11] [µg/mL]","MIC [8, 11] [µg/mL]","MIC [9, 11] [µg/mL]","MIC [10, 11] [µg/mL]",other results
"N=C(NC(=O)c1ccccc1)[C@@H]1CC[C@@H]2CN1C(=O)N2OS(=O)(=O)O [Ex.2, (2S,5R)-2-(N-benzoylcarbamimidoyl)-7-oxo-1,6-diazabicyclo[3.2.1]octan-6-yl Hydrogen Sulfate]",> 64,> 64,> 64,> 64,> 64,> 64,> 64,> 64,> 64,> 64,
"N=C(NC(=O)c1nccs1)[C@@H]1CC[C@@H]2CN1C(=O)N2OS(=O)(=O)[O-].[Na+] [Ex.23, Sodium (2S,5R)-7-oxo-2-(N-(thiazole-2-carbonyl)carbamimidoyl)-1,6-diazabicyclo[3.2.1]octan-6-yl Sulfate]",> 64,> 64,> 64,> 64,> 64,> 64,> 64,> 64,> 64,> 64,
"C[C@@H](O)[C@H]1C(=O)N2C(C(=O)O)=C(S[C@@H]3CN[C@H](C(=O)N(C)C)C3)[C@H](C)[C@H]12 [MER, meropenam, reference compound]",,,,,,,,,,,"MIC, MER Alone ([1]; meropenam alone): 2.0 mg/L; MIC, MER Alone ([2]; meropenam alone): 2.0 mg/L; MIC, MER Alone ([3]; meropenam alone): 2.0 mg/L; MIC, MER Alone ([4]; meropenam alone): 1.0 mg/L; MIC, MER Alone ([5]; meropenam alone): 2.0 mg/L; MIC, MER Alone ([6]; meropenam alone): 2.0 mg/L; MIC, MER Alone ([7]; meropenam alone): 2.0 mg/L; MIC, MER Alone ([8]; meropenam alone): 1.0 mg/L; MIC, MER Alone ([9]; meropenam alone): 2.0 mg/L; MIC, MER Alone ([10]; meropenam alone): 2.0 mg/L"
"N=C(NC(=O)c1cncnc1)[C@@H]1CC[C@@H]2CN1C(=O)N2OS(=O)(=O)O [Ex.10, Sodium (2S,5R)-7-oxo-2-(N-(pyrimidine-5-carbonyl)carbamimidoyl)-1,6-diazabicyclo[3.2.1]octan-6-yl Sulfate]",> 64,> 64,> 64,> 64,> 64,> 64,> 64,> 64,> 64,> 64,
"CN1CCC[C@@H](C(=O)NC(=N)[C@@H]2CC[C@@H]3CN2C(=O)N3OS(=O)(=O)[O-])C1.[Na+] [Ex.29, Sodium (2S,5R)-2-(N-((R)-1-methylpiperidine-3-carbonyl)carbamimidoyl)-7-oxo-1,6-diazabicyclo[3.2.1]octan-6-yl Sulfate]",> 64,> 64,> 64,> 64,> 64,> 64,> 64,> 64,> 64,> 64,
"N=C(NC(=O)c1cccnn1)[C@@H]1CC[C@@H]2CN1C(=O)N2OS(=O)(=O)O [Ex.12, (2S,5R)-7-oxo-2-(N-(pyridazine-3-carbonyl)carbamimidoyl)-1,6-diazabicyclo[3.2.1]octan-6-yl Hydrogen Sulfate]",> 64,> 64,> 64,> 64,> 64,> 64,> 64,> 64,> 64,> 64,
"CC(=O)NC(=N)[C@@H]1CC[C@@H]2CN1C(=O)N2OS(=O)(=O)O [Ex.9, (2S,5R)-2-(N-acetylcarbamimidoyl)-7-oxo-1,6-diazabicyclo[3.2.1]octan-6-yl Hydrogen Sulfate]",> 64,> 64,> 64,> 64,> 64,> 64,> 64,> 64,> 64,> 64,
"N=C(NC(=O)CCN)[C@@H]1CC[C@@H]2CN1C(=O)N2OS(=O)(=O)[O-].[Na+] [Ex.11, Sodium (2S,5R)-2-(N-(3-aminopropanoyl)carbamimidoyl)-7-oxo-1,6-diazabicyclo[3.2.1]octan-6-yl Sulfate]",> 64,> 64,> 64,> 64,> 64,> 64,> 64,> 64,> 64,> 64,
"CC(=O)N1CC[C@@H](C(=O)NC(=N)[C@@H]2CC[C@@H]3CN2C(=O)N3OS(=O)(=O)O)C1 [Ex.31, Sodium (2S,5R)-2-(N-((R)-1-acetylpyrrolidine-3-carbonyl)carbamimidoyl)-7-oxo-1,6-diazabicyclo[3.2.1]octan-6-yl Sulfate]",> 64,> 64,> 64,> 64,> 64,> 64,> 64,> 64,> 64,> 64,
"N=C(NC(=O)c1ccc(C(F)(F)F)nc1)[C@@H]1CC[C@@H]2CN1C(=O)N2OS(=O)(=O)[O-].[Na+] [Ex.6, Sodium (2S,5R)-7-oxo-2-(N-(6-(trifluoromethyl)nicotinoyl)carbamimidoyl)-1,6-diazabicyclo[3.2.1]octan-6-yl Sulfate]",> 64,> 64,> 64,> 64,> 64,> 64,> 64,> 64,> 64,> 64,
"N=C(N)NOCCCC(=O)NC(=N)[C@@H]1CC[C@@H]2CN1C(=O)N2OS(=O)(=O)O [Ex.47, (2S,5R)-2-(N-(4-(guanidinooxy)butanoyl)carbamimidoyl)-7-oxo-1,6-diazabicyclo[3.2.1]octan-6-yl Hydrogen Sulfate]",,,,,,,,,,,MIC ([1]; read-out: MIC): > 64 µg/mL; MIC ([2]; read-out: MIC): > 64 µg/mL; MIC ([3]; read-out: MIC): > 64 µg/mL; MIC ([4]; read-out: MIC): > 64 µg/mL; MIC ([5]; read-out: MIC): > 64 µg/mL; MIC ([6]; read-out: MIC): > 64 µg/mL; MIC ([7]; read-out: MIC): > 64 µg/mL; MIC ([8]; read-out: MIC): > 64 µg/mL; MIC ([9]; read-out: MIC): > 64 µg/mL; MIC ([10]; read-out: MIC): > 64 µg/mL
"N=C(NC(=O)c1nc(N)cs1)[C@@H]1CC[C@@H]2CN1C(=O)N2OS(=O)(=O)[O-].[Na+] [Ex.22, Sodium (2S,5R)-2-(N-(4-aminothiazole-2-carbonyl)carbamimidoyl)-7-oxo-1,6-diazabicyclo[3.2.1]octan-6-yl Sulfate]",> 64,> 64,> 64,> 64,> 64,> 64,> 64,> 64,> 64,> 64,
"CN1CC[C@H](C(=O)NC(=N)[C@@H]2CC[C@@H]3CN2C(=O)N3OS(=O)(=O)[O-])C1.[Na+] [Ex.32, Sodium (2S,5R)-2-(N-((S)-1-methylpyrrolidine-3-carbonyl)carbamimidoyl)-7-oxo-1,6-diazabicyclo[3.2.1]octan-6-yl Sulfate]",> 64,> 64,> 64,> 64,> 64,> 64,> 64,> 64,> 64,> 64,
"N=C(NC(=O)C1CCNCC1)[C@@H]1CC[C@@H]2CN1C(=O)N2OS(=O)(=O)[O-].[Na+] [Ex.18, Sodium (2S,5R)-7-oxo-2-(N-(piperidine-4-carbonyl)carbamimidoyl)-1,6-diazabicyclo[3.2.1]octan-6-yl Sulfate]",> 64,> 64,> 64,> 64,> 64,> 64,> 64,> 64,> 64,> 64,
"N=C(NC(=O)c1ccco1)[C@@H]1CC[C@@H]2CN1C(=O)N2OS(=O)(=O)O [Ex.1, (2S,5R)-2-(N-(furan-2-carbonyl)carbamimidoyl)-7-oxo-1,6-diazabicyclo[3.2.1]octan-6-yl Hydrogen Sulfate]",> 64,> 64,> 64,> 64,> 64,> 64,> 64,> 64,> 64,> 64,
